Legend:
[1] = biological target: T1, Sodium-dependent dopamine transporter (Rattus norvegicus, UniProt P23977); test: Inhibition of [3H]WIN-35428l binding to Dopamine transporter
[2] = biological target: T2, Norepinephrine transporter (Rattus norvegicus, UniProt Q9WTR4); test: Inhibition of [3H]mazindol binding to Norepinephrine transporter
[3] = biological target: Sodium-dependent serotonin transporter (Rattus norvegicus) (UniProt P31652); test: Ratio of IC50(5-HT) to the IC50(DA)
[4] = biological target: Sodium-dependent serotonin transporter (Rattus norvegicus, UniProt P31652); test: Inhibition of [3H]paroxetine binding to Serotonin transporter
[5] = biological target: T2, Norepinephrine transporter; test: Compound was evaluated for the inhibition of [3H]mazindol binding to norepinephrine (NE) transporter
[6] = biological target: T1, Sodium-dependent dopamine transporter; test: Compound was evaluated for the inhibition of [3H]WIN-35428l binding to dopamine transporter

Chain of Sodium-dependent serotonin transporter (P31652 whole entry): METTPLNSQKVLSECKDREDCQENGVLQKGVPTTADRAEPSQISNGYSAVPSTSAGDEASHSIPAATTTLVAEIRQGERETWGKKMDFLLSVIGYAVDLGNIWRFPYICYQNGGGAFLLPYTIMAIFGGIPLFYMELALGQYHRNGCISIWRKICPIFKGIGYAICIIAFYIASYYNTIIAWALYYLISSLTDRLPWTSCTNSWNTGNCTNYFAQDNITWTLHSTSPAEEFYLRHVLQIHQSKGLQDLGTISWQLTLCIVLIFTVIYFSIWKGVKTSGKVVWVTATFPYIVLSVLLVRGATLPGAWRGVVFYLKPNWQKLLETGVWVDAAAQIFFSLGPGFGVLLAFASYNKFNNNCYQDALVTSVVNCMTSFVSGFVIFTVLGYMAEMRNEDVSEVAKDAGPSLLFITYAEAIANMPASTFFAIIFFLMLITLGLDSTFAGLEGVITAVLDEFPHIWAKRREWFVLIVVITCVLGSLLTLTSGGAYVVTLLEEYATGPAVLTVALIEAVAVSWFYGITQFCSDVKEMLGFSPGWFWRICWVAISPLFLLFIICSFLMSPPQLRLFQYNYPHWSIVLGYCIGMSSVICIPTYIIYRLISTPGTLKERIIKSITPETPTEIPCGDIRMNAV
Chain of Sodium-dependent serotonin transporter (Rattus norvegicus) (P31652 whole entry): as above
T2 sequence (Q9WTR4 whole entry): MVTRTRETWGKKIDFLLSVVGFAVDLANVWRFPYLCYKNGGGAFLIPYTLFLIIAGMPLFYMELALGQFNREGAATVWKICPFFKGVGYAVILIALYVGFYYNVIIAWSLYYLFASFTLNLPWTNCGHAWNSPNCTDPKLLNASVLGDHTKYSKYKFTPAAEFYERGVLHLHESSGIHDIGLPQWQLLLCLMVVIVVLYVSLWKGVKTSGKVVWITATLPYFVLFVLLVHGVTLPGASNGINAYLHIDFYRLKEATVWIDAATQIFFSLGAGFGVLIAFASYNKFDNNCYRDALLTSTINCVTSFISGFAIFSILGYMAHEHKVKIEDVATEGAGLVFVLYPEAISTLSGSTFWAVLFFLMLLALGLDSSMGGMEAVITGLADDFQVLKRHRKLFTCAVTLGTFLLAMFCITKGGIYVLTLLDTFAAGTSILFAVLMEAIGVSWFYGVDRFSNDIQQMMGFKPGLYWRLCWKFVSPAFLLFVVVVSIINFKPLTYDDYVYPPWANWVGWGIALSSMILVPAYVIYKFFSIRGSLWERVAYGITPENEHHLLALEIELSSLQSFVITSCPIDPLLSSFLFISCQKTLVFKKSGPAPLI
T1 sequence (P23977 whole entry): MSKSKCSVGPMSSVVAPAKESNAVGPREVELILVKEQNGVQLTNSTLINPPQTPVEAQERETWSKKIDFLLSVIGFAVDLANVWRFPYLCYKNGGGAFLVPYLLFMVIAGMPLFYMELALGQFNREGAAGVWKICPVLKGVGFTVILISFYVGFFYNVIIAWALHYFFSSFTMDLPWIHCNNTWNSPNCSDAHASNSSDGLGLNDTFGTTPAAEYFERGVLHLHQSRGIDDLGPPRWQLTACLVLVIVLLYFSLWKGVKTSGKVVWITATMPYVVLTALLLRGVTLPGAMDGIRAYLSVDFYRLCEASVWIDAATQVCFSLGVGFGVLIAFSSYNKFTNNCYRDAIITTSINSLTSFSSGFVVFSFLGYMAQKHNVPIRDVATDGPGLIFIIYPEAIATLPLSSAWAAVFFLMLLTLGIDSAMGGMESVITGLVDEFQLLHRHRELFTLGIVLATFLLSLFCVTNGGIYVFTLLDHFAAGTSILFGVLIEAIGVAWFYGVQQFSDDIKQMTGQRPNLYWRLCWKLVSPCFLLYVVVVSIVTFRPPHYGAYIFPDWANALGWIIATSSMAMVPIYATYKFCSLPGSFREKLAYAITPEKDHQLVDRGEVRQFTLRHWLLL

Structure (SMILES) | IC50 [1] [nM] | IC50 [2] [µM] | Ratio [3] | IC50 [4] [nM] | IC50 [5] [µM] | IC50 [6] [nM]
CN1C2CC[C@@H]1C[C@H](OC(=O)c1ccccc1)[C@@H]2C(=O)Oc1ccccc1 | 112 | 37.4 | 512 | 57400 | – | –
CCCOC(=O)[C@@H]1C2CC[C@H](C[C@@H]1OC(=O)c1ccccc1)N2C | – | – | – | 4130 | 15.8 | 191
COC(=O)[C@H]1[C@@H](c2ccc(F)cc2)C[C@H]2CC[C@H]1N2C | – | 1.24 | – | 759 | – | –
COC(=O)[C@@H]1C2CC[C@H](C[C@@H]1c1ccccc1)N2C | – | 2.08 | – | – | – | –
CCOC(=O)[C@@H]1C2CC[C@H](C[C@@H]1OC(=O)c1ccccc1)N2C | 130 | 26.8 | 70 | 9060 | – | –
COC(=O)[C@@H]1C2CC[C@H](C[C@@H]1c1ccc(C)cc1)N2C | 1.71 | – | – | – | – | –
CC(C)OC(=O)[C@@H]1C2CC[C@H](C[C@@H]1c1ccc(I)cc1)N2C | 0.43 | 0.864 | 721 | 310 | – | –
COC(=O)C1C2CC[C@H](C[C@@H]1c1ccc(Cl)cc1)N2C (some centres undefined) | – | – | – | 44.5 | – | –
CN1C2CC[C@@H]1C[C@H](OC(=O)c1ccccc1)[C@@H]2C(=O)OCCCc1ccccc1 | – | – | – | 374 | 25.1 | –
COC(=O)[C@@H]1C2CC[C@H](C[C@@H]1c1ccc(I)cc1)N2C | 1.26 | 0.0346 | 3.3 | 4.2 | – | –
CC(C)OC(=O)[C@@H]1C2CC[C@H](C[C@@H]1c1ccc(Cl)cc1)N2C | 1.41 | 2.15 | 996 | 1400 | – | –
Cc1ccc([C@H]2C[C@H]3CCC([C@H]2C(=O)Oc2ccccc2)N3C)cc1 | 3.27 | 10.8 | 9070 | 29700 | – | –
CC(C)OC(=O)[C@@H]1C2CC[C@H](C[C@@H]1OC(=O)c1ccccc1)N2C | – | 23.5 | 122 | 25700 | – | –
Cc1ccc([C@H]2C[C@H]3CCC([C@H]2C(=O)OC(C)C)N3C)cc1 | 5.29 | 4.3 | 1210 | 6410 | – | –
CN1C2CC[C@@H]1C[C@H](c1ccc(I)cc1)[C@@H]2C(=O)Oc1ccccc1 | 1.51 | 18.3 | 216 | 326 | – | –
CN1C2CC[C@@H]1C[C@H](c1ccc(Cl)cc1)[C@@H]2C(=O)Oc1ccccc1 | 1.99 | 4.57 | 1170 | 2340 | – | –

Reference: ChEMBL document CHEMBL1125471, “Isopropyl and phenyl esters of 3 beta-(4-substituted phenyl)tropan-2 beta-carboxylic acids. Potent and selective compounds for the dopamine transporter” (J Med Chem, 1992)
